# Data from patent US10689365B2, “Substituted 2-alkylimidazolylcarboxamides as pesticides” (Bayer CropScience Aktiengesellschaft, priority 2016, dated 2020).
# Read-outs that look alike come from different tables or passages of the source.
# Key:
# Myzus persicae [1] = assay: Myzus persicae - spray test (Chinese cabbage leaf discs); format: in vivo; conditions: for pest or weed control at 500 g/ha: Myzus persicae, foliar, read-out: efficacy
# Procedure: Myzus persicae—Spray Test
# Solvent: 78 parts by weight of acetone • • 1.5 parts by weight of dimethylformamide
# Emulsifier: alkylaryl polyglycol ether
# To produce a suitable active compound preparation, 1 part by weight of active compound is dissolved using the stated parts by weight of solvent and made up with water containing an emulsifier concentration of 1000 ppm until the desired concentration is attained. To produce further test concentrations, the formulation is diluted with emulsifier-containing water.
# Discs of Chinese cabbage leaves (Brassica pekinensis) infested by all stages of the green peach aphid (Myzus persicae) are sprayed with an active ingredient formulation of the desired concentration.
# After 5-6 days, the efficacy in % is determined. 100% means that all the aphids have been killed; 0% means that no aphids have been killed.
# Myzus persicae [2] = assay: Myzus persicae - oral test; format: in vivo; conditions: for pest or weed control at 20 ppm: Myzus persicae, po, 120 h, read-out: efficacy
# Procedure: Solvent: 100 parts by weight of acetone
# To produce a suitable preparation of active compound, 1 part by weight of active compound is dissolved using the specified parts by weight of solvent and made up with water until the desired concentration is attained.
# 50 μl of the active compound preparation are transferred into microtitre plates and made up to a final volume of 200 μl with 150 μl of IPL41 insect medium (33%+15% sugar). Subsequently, the plates are sealed with parafilm, which a mixed population of green peach aphids (Myzus persicae) within a second microtitre plate is able to puncture and imbibe the solution through it.
# After 5 days, the efficacy in % is determined. 100% means that all the aphids have been killed; 0% means that no aphids have been killed.
# [3] = log P by HPLC on reversed-phase (C18) columns, OECD Guideline 117; format: physicochemical; conditions: for chromatographic logP: reversed-phase (C18) HPLC column
# Procedure: The log P values were determined in accordance with OECD Guideline 117 (EC Directive 92/69/EEC) by HPLC (high-performance liquid chromatography) using reversed-phase (RP) columns (C18), by the following methods:
# [a] The LC-MS determination in the acidic range was carried out at pH 2.7 with 0.1% aqueous formic acid and acetonitrile (contains 0.1% formic acid) as mobile phases; linear gradient from 10% acetonitrile to 95% acetonitrile.
# [b] LC-MS determination in the neutral range was carried out at pH 7.8 with 0.001 molar aqueous ammonium hydrogencarbonate solution and acetonitrile as mobile phases; linear gradient from 10% acetonitrile to 95% acetonitrile.
# [4] = application rate 500 g/ha, after 5-6 days
# [5] = application rate 20 ppm, after 5 days
# [6] = neutral range, pH 7.8, aqueous ammonium hydrogencarbonate/acetonitrile
# [7] = acidic range, pH 2.7, 0.1% aqueous formic acid/acetonitrile
# [8] = acidic range, pH 2.7, 0.1% aqueous formic acid/acetonitrile, read-out: logP[a]
# [9] = neutral range, pH 7.8, aqueous ammonium hydrogencarbonate/acetonitrile, read-out: logP[n]
"logP[n] [3, 6]","logP[a] [3, 7]",SMILES,efficacy (Myzus persicae [1]; [4]),efficacy (Myzus persicae [2]; [5]),other results
0.45,–,CC(O)c1ncc(C(=O)N(C)c2cccnc2)n1C (racemic) [Example I-1-9],100%,100%,–
–,0.18,CC(C)C(O)c1ncc(C(=O)N(C)c2cccnc2)n1C (racemic) [Example I-1-11],90%,100%,–
–,0.85,CN(C(=O)c1cnc(C(O)c2ccccc2Cl)n1C)c1cccnc1 (racemic) [Example I-1-13],100%,100%,–
1.56,1.01,CN(C(=O)c1cnc(C(O)c2cccc(Cl)c2)n1C)c1cccnc1 (racemic) [Example I-1-14],90%,100%,–
1.56,1.11,CN(C(=O)c1cnc(C(O)c2ccc(Cl)cc2)n1C)c1cccnc1 (racemic) [Example I-1-15],100%,100%,–
1.87,1.42,CN(C(=O)c1cnc(C(O)c2ccc(Cl)c(Cl)c2)n1C)c1cccnc1 (racemic) [Example I-1-16],100%,100%,–
0.71,0.02,CN(C(=O)c1cnc(C(O)c2ccccn2)n1C)c1cccnc1 (racemic) [Example I-1-17],100%,100%,–
0.60,–,CN(C(=O)c1cnc(C(O)c2cccnc2)n1C)c1cccnc1 (racemic) [Example I-1-18],90%,100%,–
0.54,–,CN(C(=O)c1cnc(C(O)c2ccncc2)n1C)c1cccnc1 (racemic) [Example I-1-19],90%,100%,–
1.07,0.59,CN(C(=O)c1cnc(C(O)c2cnccc2Cl)n1C)c1cccnc1 (racemic) [Example I-1-20],90%,100%,–
0.40,–,CN(C(=O)c1cnc(C(O)c2ncccn2)n1C)c1cccnc1 (racemic) [Example I-1-21],100%,100%,–
1.26,0.60,CC(C)CC(O)c1ncc(C(=O)N(C)c2cccnc2)n1C (racemic) [Example I-1-60],90%,100%,–
1.53,0.92,CC(C)CCC(O)c1ncc(C(=O)N(C)c2cccnc2)n1C (racemic) [Example I-1-61],90%,100%,–
–,–,"CN(C(=O)c1cnc(Cc2ccccc2)n1C)c1cccnc1 [Example I-1-3, 2-Benzyl-N,1-dimethyl-N-(pyridin-3-yl)-1H-imidazole-5-carboxamide]",–,–,"pest or weed control at 500 g/ha (Myzus persicae [1]; [4]): 100%; pest or weed control at 20 ppm (Myzus persicae [2]; [5]): 90%; chromatographic logP [3, 8]: 0.64; chromatographic logP [3, 9]: 1.48"
0.68,–,CN(C(=O)c1cnc(Cc2ncccn2)n1C)c1cccnc1 [Example I-1-4],100%,100%,–
–,–,"CN(C(=O)c1cnc(CCc2ccccc2)n1C)c1cccnc1 [Example I-1-5, N,1-Dimethyl-2-(phenylethyl)-N-(pyridin-3-yl)-1H-imidazole-5-carboxamide]",–,–,"pest or weed control at 500 g/ha (Myzus persicae [1]; [4]): 100%; pest or weed control at 20 ppm (Myzus persicae [2]; [5]): 100%; chromatographic logP [3, 8]: 0.66; chromatographic logP [3, 9]: 1.58"
–,–,"C=Cc1ncc(C(=O)N(C)c2cccnc2)n1C [Example I-1-6, N,1-Dimethyl-N-(pyridin-3-yl)-2-vinyl-1H-imidazole-5-carboxamide]",–,–,pest or weed control at 500 g/ha (Myzus persicae [1]; [4]): 100%; pest or weed control at 20 ppm (Myzus persicae [2]; [5]): 100%
–,–,"CN(C(=O)c1cnc(CO)n1C)c1cccnc1 [Example I-1-7, 2-(Hydroxymethyl)-N,1-dimethyl-N-(pyridin-3-yl)-1H-imidazole-5-carboxamide]",–,–,"pest or weed control at 500 g/ha (Myzus persicae [1]; [4]): 100%; pest or weed control at 20 ppm (Myzus persicae [2]; [5]): 100%; chromatographic logP [3, 9]: 0.28"
0.63,−0.16,CCN(C(=O)c1cnc(CO)n1C)c1cccnc1 [Example I-1-8],–,90%,–
–,–,"CN(C(=O)c1cnc(C(C)(C)O)n1C)c1cccnc1 [Example I-1-10, 2-(2-Hydroxypropan-2-yl)-N,1-dimethyl-N-(pyridin-3-yl)-1H-imidazole-5-carboxamide]",–,–,"pest or weed control at 500 g/ha (Myzus persicae [1]): 90%; pest or weed control at 20 ppm (Myzus persicae [2]): 70%; chromatographic logP [3, 9]: 0.57"

"logP[n] [3, 6]","logP[a] [3, 7]",SMILES,efficacy (Myzus persicae [1]; [4]),efficacy (Myzus persicae [2]; [5]),other results
–,–,"CN(C(=O)c1cnc(C(O)c2ccccc2)n1C)c1cccnc1 (centres unmarked) [Example I-1-12, 2-[Hydroxy(phenyl)methyl]-N,1-dimethyl-N-(pyridin-3-yl)-1H-imidazole-5-carboxamide]",–,–,"pest or weed control at 500 g/ha (Myzus persicae [1]): 90%; pest or weed control at 20 ppm (Myzus persicae [2]): 100%; chromatographic logP [3, 8]: 0.52; chromatographic logP [3, 9]: 1.23"
–,–,"COCc1ncc(C(=O)N(C)c2cccnc2)n1C [Example I-1-22, 2-(Methoxymethyl)-N,1-dimethyl-N-(pyridin-3-yl)-1H-imidazole-5-carboxamide]",–,–,"pest or weed control at 500 g/ha (Myzus persicae [1]; [4]): 100%; pest or weed control at 20 ppm (Myzus persicae [2]; [5]): 100%; chromatographic logP [3, 9]: 0.63"
1.29,0.67,CN(C(=O)c1cnc(COCC2CC2)n1C)c1cccnc1 [Example I-1-23],100%,100%,–
2.02,1.69,CN(C(=O)c1cnc(COc2cccc(Cl)c2)n1C)c1cccnc1 [Example I-1-24],100%,90%,–
1.63,1.10,CN(C(=O)c1cnc(COCc2ccccc2)n1C)c1cccnc1 [Example I-1-25],90%,100%,–
–,–,"CC(C)CS(=O)(=O)Cc1ncc(C(=O)N(C)c2ccc[n+]([O-])c2)n1C [Example I-1-55, 2-[(Isobutylsulphonyl)methyl]-N,1-dimethyl-N-(1-oxidopyridin-3-yl)-1H-imidazole-5-carboxamide]",–,–,"chromatographic logP [3, 8]: 0.68; chromatographic logP [3, 9]: 0.77"
1.10,0.18,C=Cc1ncc(C(=O)N(CC)c2cccnc2)n1C [Example I-1-56],90%,90%,–
1.05,0.10,C=C(C)c1ncc(C(=O)N(C)c2cccnc2)n1C [Example I-1-57],90%,–,–
1.08,–,C/C=C/c1ncc(C(=O)N(C)c2cccnc2)n1C [Example I-1-58],90%,–,–
1.11,–,C/C=C\c1ncc(C(=O)N(C)c2cccnc2)n1C [Example I-1-59],90%,–,–
2.00,1.63,CN(C(=O)c1cnc(COc2ccc(Cl)cc2)n1C)c1cccnc1 [Example I-1-62],100%,100%,–
1.36,0.84,CN(C(=O)c1cnc(COCC(F)(F)F)n1C)c1cccnc1 [Example I-1-63],90%,100%,–
0.61,–,Cn1c(C(=O)N(c2cccnc2)C2CC2)cnc1CO [Example I-1-66],–,70%,–
–,–,"CN(C(=O)c1cnc(C(OCC(F)(F)F)C(F)(F)F)n1C)c1cccnc1 (centres unmarked) [Example I-1-67, N,1-Dimethyl-N-(pyridin-3-yl)-2-[2,2,2-trifluoro-1-(2,2,2-trifluoroethoxy)ethyl]-1H-imidazole-5-carboxamide]",–,–,"pest or weed control at 500 g/ha (Myzus persicae [1]; [4]): 70%; chromatographic logP [3, 8]: 1.72; chromatographic logP [3, 9]: 1.86"
1.21,1.02,CN(C(=O)c1cnc(C(O)C(Cl)(Cl)Cl)n1C)c1cccnc1 (centres unmarked) [Example I-1-68],–,–,–
0.59,0.22,CN(C(=O)c1cnc(Cn2ncn(C3CC3)c2=O)n1C)c1cccnc1 [Example I-1-69],70%,–,–
0.37,–,CN(C(=O)c1cnc(Cn2ncn(C)c2=O)n1C)c1cccnc1 [Example I-1-70],–,–,–
–,–,"CN(C(=O)c1cnc(CCl)n1C)c1cccnc1 [III-1-1, 2-(Chloromethyl)-N,1-dimethyl-N-(pyridin-3-yl)-1H-imidazole-5-carboxamide]",–,–,"chromatographic logP [3, 9]: 0.89"
–,–,"CN(C(=O)c1cnc(C#Cc2ccccc2)n1C)c1cccnc1 [IV-1-1, N,1-Dimethyl-2-(phenylethinyl)-N-(pyridin-3-yl)-1H-imidazole-5-carboxamide]",–,–,"chromatographic logP [3, 8]: 1.86; chromatographic logP [3, 9]: 1.98"
